The source of these data is the SangsterLogP compilation.

Data set [1] in a line: method code SF-AS, from Woolston, C.; Lee, J.; Swinbourne, F. (1994). Partition coefficients and chromatographic parameters of some substituted 1,3-thiazolidin-4-ones. Ind. J. Chem., Sect. B, 33(6)590-592. The note with it: pH 7.4.

The logP is the decadic logarithm of the partition coefficient of the neutral form, usually between octanol and water. Higher therefore signals higher lipophilicity. Broadly, the logD is lipophilicity at a set pH, counting ionised and neutral species. A low value points to lower lipophilicity.

As to `O=C1CS(=O)(=O)C(c2ccccc2)N1c1cccc([N+](=O)[O-])c1` (stereo not drawn), the logP came out at 1.09.

Molecule `Cc1cccc(C2SCC(=O)N2c2ccccc2)c1` (stereo not drawn) displayed a lipophilicity (logP) of 2.3.

On to `O=C1CSC(c2cccc(Br)c2)N1c1ccccc1` (stereo not drawn), for which the logP amounted to 2.44.

For `O=C1CSC(c2cccc(Cl)c2)N1c1ccccc1` (stereo not drawn), the logP amounted to 2.32.

In turn, `O=C1CS(=O)C(c2ccccc2)N1c1cccc([N+](=O)[O-])c1` (stereo not drawn) registered a log partition coefficient (logP) of 1.09.

`O=C1CSC(c2ccccc2)N1c1cccc(Br)c1` (stereo not drawn) gave a log partition coefficient (logP) of 2.58.

For the molecule `N#Cc1ccc(C2SCC(=O)N2c2ccccc2)cc1` (stereo not drawn), the logP turned out to be 1.32.

Turning to `O=C1CSC(c2ccccc2)N1c1ccc(O)cc1` (stereo not drawn), the logP stood at 1.29.

Molecule `COc1cccc(C2SCC(=O)N2c2ccccc2)c1` (stereo not drawn) returned a logP of 1.96.

The molecule `COc1ccc(N2C(=O)CS(=O)C2c2ccccc2)cc1` (stereo not drawn) gave a logP of 1.07.

`O=C1CS(=O)(=O)C(c2ccccc2)N1c1ccccc1` (stereo not drawn) returned a logD in data set [1] of 1.23.

As to `O=C1CSC(c2cccc(F)c2)N1c1ccccc1` (stereo not drawn), the log partition coefficient (logP) worked out at 1.9.

In the case of `O=C1CSC(c2ccccc2)N1c1ccccc1` (stereo not drawn), the logP came to 1.88.

`O=C1CS(=O)C(c2ccccc2)N1c1ccccc1` (stereo not drawn) registered a logP of 1.07.

With `O=C1CSC(c2ccccc2)N1c1ccc(Cl)cc1` (stereo not drawn), the logP was 2.42.

On to `Cc1ccc(N2C(=O)CSC2c2ccccc2)cc1` (stereo not drawn), for which the logP was 2.32.

In turn, `O=C1CSC(c2ccccc2)N1c1ccc(Br)cc1` (stereo not drawn) came in with a logP of 2.56.

`O=C1CS(=O)(=O)C(c2cccc(Br)c2)N1c1ccccc1` (stereo not drawn) gave a logP of 1.63.

In the case of `O=C1CSC(c2cccc([N+](=O)[O-])c2)N1c1ccccc1` (stereo not drawn), the logP was 1.73.

Regarding `COc1ccc(N2C(=O)CSC2c2ccccc2)cc1` (stereo not drawn), the logP amounted to 1.92.

With `COc1ccc(N2C(=O)CS(=O)(=O)C2c2ccccc2)cc1` (stereo not drawn), the logP stood at 1.09.

Take `O=C1CSC(c2ccc([N+](=O)[O-])cc2)N1c1ccccc1` (stereo not drawn): the logP was 1.75.

Regarding `O=C1CSC(c2ccc(Cl)cc2)N1c1ccccc1` (stereo not drawn), the logP is 2.52.

`O=C1CSC(c2ccc(Br)cc2)N1c1ccccc1` (stereo not drawn) registered a logP of 2.66.

`Cc1ccc(C2SCC(=O)N2c2ccccc2)cc1` (stereo not drawn) displayed a logP of 2.48.

Consider `O=C1CSC(c2ccccc2)N1c1cccc([N+](=O)[O-])c1` (stereo not drawn), for which the logP was found to be 1.9.

In the case of `COc1ccc(C2SCC(=O)N2c2ccccc2)cc1` (stereo not drawn), the logP was determined as 1.97.

As to `O=C1CS(=O)C(c2cccc(Br)c2)N1c1ccccc1` (stereo not drawn), the log partition coefficient (logP) was 1.63.
